# Literature values as cited in patent US11174289B1, “Artificial intelligence designed antimicrobial peptides” (International Business Machines Corporation, priority 2020, dated 2021).
# Key:
# [1] = no significant antimicrobial activity; strain not given
# [2] = comparison value for the clinically used drug
Substance,MIC [1] [µg/mL],LD50 [2] [mg/kg]
FPVTWPTKWWKG [PuroB],> 200,
polymyxin B,,20.5
